Consider three molecules from patent US10137199B2, “Thiolated hyaluronan-based hydrogels cross-linked using oxidized glutathione” (BioTime, Inc., priority 2013, dated 2018).

The nature of data set [1]: Gel formation of CMHA-S and Gelin-S with disulfide containing small molecules. The class given is physicochemical. To be noted: thiolated biopolymers CMHA-S and Gelin-S. How it is done: Initially we tested whether GSSG would be a suitable reactant for a thiol-disulfide exchange reaction with thiolated biopolymers CMHA-S and Gelin-S to form a two-component (CMHA/Gelin/GSSG) gel with no additional crosslinking molecule (FIG. 1 where R′—SH represents Gelin-S). A gel formed in approximately three minutes using a final concentration of 4 mM GSSG and 0.4% w/v CMHA-S and 0.4% w/v Gelin-S (Sample 4, Table 1).

The subject of the next data set is ADSC. Briefly: Cell attachment on peptide functionalized CMHA/GSSG hydrogels, ADSC. The class given is cell-based, human. To be noted: 15,000 cells/well, attach overnight, calcein AM. How it is done:
After N-terminal maleimido-tagged peptides (Anaspec, Inc. Fremont, CCA) were resuspended in 1×PBS, 1 volume 10 mM peptide was mixed with nine volumes CMHA-S, and reaction was allowed to occur at room temperature in the dark, overnight. GSSG was added to a final concentration of 4 mM (brings peptide final concentration to 0.88 mM) and the mixture allowed to form gels in a 48-well multiwell plate. Unreacted peptides were removed by three washes of at least five volumes 1×PBS at 75 rpm 37° C., for at least 4 hr each. ADSC or BM-MSC in DMEM/10% FBS were then added to each well (15,000 cells/well in a 48 well plate) and allowed to attach overnight. On the final day, the cells were imaged by fluorescence using calcein AM stain.

Turning to `N[C@@H](CS)C(=O)O` [cysteine], in data set [1], the gel formation entry is “did not cause gel formation”. Same read-out and setting: the value for `OC1CSSCC1O` (stereo not drawn) [oxidized DT] was “did not cause gel formation”. As to CRGDS, the ADSC attachment entry in the data set with ADSC is “poor robustness”.
